# Patent US11247970B2, “Selective inhibition of gluconeogenic activity” (Dana-Farber Cancer Institute, Inc., priority 2017, dated 2022)
# “Also recorded” adds a separate entry of the source.
# What was measured:
# primary hepatocytes = experiment: Cytotoxicity determination in primary hepatocytes (Toxilight, MTT, total protein); assay type: cell-based, mouse
# Description: For cell viability determination using MTT, primary hepatocytes were seeded on a 96-well plate at 20,000 cells/well. The following day cells were treated at different doses, as indicated, for 18 h following similar protocol described above for drug treatment of primary hepatocytes. […] of MTT reagent (5 mg/ml) was then added to each well (n=4/dose) and cells were incubated for 1 h at 37° C. Medium was discarded and dye was extracted by adding […] DMSO to each well. For cytotoxicity determination using ToxiLight Non-destructive Cytotoxicity Bioassay, hepatocytes were seeded on a 6-well plate and treated with either SR-18292 ([…]) or cisplatin ([…]) for 18 h. […] of medium was collected and used to measure cellular toxicity by adding 100 of adenylate kinase detection reagent (AKDR) and incubating 5 min at RT before measuring luminescence.
# GCN5 = target: T1, GCN5 (Homo sapiens, UniProt Q92830); experiment: GCN5 HAT activity assay; assay type: biochemical; settings: H3 peptide
# T1 construct: made in house; host or cells: U-2 OS cells overexpressing Ad-GCN5; FLAG immunoprecipitation, elution with 3×FLAG peptide
# T1 sequence (Q92830 whole entry, species assumed): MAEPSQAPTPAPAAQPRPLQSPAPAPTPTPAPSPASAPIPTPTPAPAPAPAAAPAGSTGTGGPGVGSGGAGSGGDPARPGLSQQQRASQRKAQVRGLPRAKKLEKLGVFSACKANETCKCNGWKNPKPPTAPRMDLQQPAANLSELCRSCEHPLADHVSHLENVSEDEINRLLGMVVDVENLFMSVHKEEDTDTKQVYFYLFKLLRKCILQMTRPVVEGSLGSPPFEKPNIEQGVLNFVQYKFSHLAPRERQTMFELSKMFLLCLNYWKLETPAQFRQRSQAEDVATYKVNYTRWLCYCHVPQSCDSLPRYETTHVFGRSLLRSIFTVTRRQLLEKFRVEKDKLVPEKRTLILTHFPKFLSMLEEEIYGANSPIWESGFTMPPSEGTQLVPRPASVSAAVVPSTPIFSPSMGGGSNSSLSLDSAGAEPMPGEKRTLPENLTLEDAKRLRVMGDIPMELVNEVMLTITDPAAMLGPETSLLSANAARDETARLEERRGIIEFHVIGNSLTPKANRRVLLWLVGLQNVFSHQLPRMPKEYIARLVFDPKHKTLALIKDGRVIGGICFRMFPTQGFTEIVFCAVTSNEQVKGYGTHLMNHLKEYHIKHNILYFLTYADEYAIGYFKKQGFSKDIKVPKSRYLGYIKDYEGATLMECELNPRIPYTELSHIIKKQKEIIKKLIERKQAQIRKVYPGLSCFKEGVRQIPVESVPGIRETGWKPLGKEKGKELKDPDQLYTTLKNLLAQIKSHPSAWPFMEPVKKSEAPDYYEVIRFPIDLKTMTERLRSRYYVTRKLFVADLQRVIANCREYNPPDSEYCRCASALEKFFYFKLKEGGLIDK
# Description: For determination of GCN5 HAT activity U-2 OS cells overexpressing Ad-GCN5 were treated with SR-18292 ([…]) for 18 h. Cells were lysed with buffer B (20 mM HEPES-KOH (pH 7.9), 125 mM NaCl, 1 mM EDTA, 1 mM DTT, 1% IGEPAL (v/v), 10% glycerol (v/v), 5 mM NaF, 5 mM β-glycerophosphate, 5 mM sodium butyrate and 10 mM nicotinamide), supplemented with Protease Inhibitor Cocktail. FLAG-GCN5 was immunoprecipitated with FLAG beads overnight at 4° C. following multiple washes with lysis buffer. GCN5 was then eluted using 3×FLAG peptide and the purified protein was used to determine HAT activity using the HAT Inhibitor Screening Assay Kit (Cayman Chemicals) per manufacturer instructions. To determine the potential effect of SR-18292 on GCN5 activity in vitro, GCN5 was purified from U-2 OS cells in a similar manner but without treatment with SR-18292.
# HFD fed mice = experiment: Fasting blood glucose in HFD fed mice; assay type: in vivo; settings: 45 mg/kg I.P., 3 days and again day 4
# Description: All mice were purchased from Jackson laboratories and housed under a 12 h light/12 h dark cycle at 22° C. Before handling, mice were allowed to acclimate for at least 1 week in our animal facility. For in vivo studies with DIO mice, males 6-8 weeks old were fed HFD for the indicated time. […] Metformin was re-suspended in the same solution at a 20 mg/ml concentration. […] Metformin was administered via oral gavage. […] Glycemia was measured by tail bleed using a glucometer (OneTouch). For all experiments, age- and body weight-matched animals were used.
# Therefore, blood glucose was measured in the fasted state during which the liver plays a major role maintaining glycemia. […] A high fat diet (HFD) fed mice, a dietary model of obesity and T2D, were used.
# [1] = system: Pck1 gene expression in liver; experiment: qPCR of gluconeogenic genes in liver of treated mice; assay type: in vivo; settings: livers from fasted treated mice
# Description: All mice were purchased from Jackson laboratories and housed under a 12 h light/12 h dark cycle at 22° C. Before handling, mice were allowed to acclimate for at least 1 week in our animal facility. For in vivo studies with DIO mice, males 6-8 weeks old were fed HFD for the indicated time. For drug administration, SR-18292 was re-suspended in a 10% DMSO/10% Tween80/80% PBS solution at a final concentration of 6-12 mg/ml. Metformin was re-suspended in the same solution at a 20 mg/ml concentration. SR-18292 was injected via I.P. for 3 days between 4-5 pm and food was removed on day 3 at 5 pm. […] Metformin was administered via oral gavage. […] Insulin tolerance test was performed following the same dosing protocol, but mice were fasted for 4 hours after the forth injection before performing the test. Insulin was injected via I.P. (0.5 U/Kg) and blood glucose was measured every 20 minutes. Glycemia was measured by tail bleed using a glucometer (OneTouch). […] Total RNA was extracted from cells or pulverized liver using TRIzol reagent (Ambion, Life Technologies), followed by cDNA preparation from 2 μg of total RNA with a High-Capacity cDNA Reverse Transcription Kit (Applied Biosystems). cDNA products were quantified by real-time PCR using Power SYBR Green PCR Master Mix (Applied Biosystems) on a CFX384 Real-Time PCR System (Bio-Rad). […]
# [2] = Liver and serum lipids, metabolites and liver gene expression in treated HFD mice; assay type: in vivo
# Description: Total RNA was extracted from cells or pulverized liver using TRIzol reagent (Ambion, Life Technologies), followed by cDNA preparation from 2 μg of total RNA with a High-Capacity cDNA Reverse Transcription Kit (Applied Biosystems). cDNA products were quantified by real-time PCR using Power SYBR Green PCR Master Mix (Applied Biosystems) on a CFX384 Real-Time PCR System (Bio-Rad). To calculate IC50 from C-80 dose response, curves were fit to the hill equation in a similar manner used to calculate estimated AC50 from the high-throughput qPCR screen. However, unlike the curves from the qPCR high-throughput screen, values of relative repression were used rather than of delta-Ct.
# Serum samples were gathered from blood collected by cardiac puncture. Insulin was measured with Ultra Sensitive Mouse Insulin ELISA Kit (Crystal Chem, 90080). Kits used to measure alanine transaminase (EALT-100), aspartate transaminase (EASTR-100), lactate dehydrogenase (DLDH-100) were purchased from Bioassay Systems. Kits used to measure lactate (MAK 064), b-hydroxybutyrate (MAK 041), Triglycerides (TR0100) were purchased from Sigma. Kit used to measure cholesterol (C7510) was purchased from Pointe Scientific. Kit used to measure non-esterified fatty acids was purchased from Wako.
smiles,measurement,setting,value
"Cc1ccc(CN(CC(O)COc2cccc3[nH]ccc23)C(C)(C)C)cc1 (stereo not shown) [SR-18292, 1-((1H-indol-4-yl)oxy)-3-(tert-butyl(4-methylbenzyl)amino)propan-2-ol]",hepatocyte toxicity by cell viability or total protein levels,primary hepatocytes; 18 h treatment,did not cause hepatocyte toxicity
same,total protein levels,primary hepatocytes; n=3,not affected
same,catalytic (HAT) activity of GCN5 immunoprecipitated from treated cells,GCN5; U-2 OS cells treated 18 h,not changed; also recorded: not increased
same,GCN5 HAT activity on in vitro treatment of IPed GCN5,GCN5; in vitro treatment,did not result in increased activity; also recorded: not affected
same,fasting blood glucose vs vehicle,HFD fed mice,significantly lower
same,gluconeogenic gene expression (Pck1) in liver,[1],inhibited
same,serum lactate and ketone bodies (β-hydroxybutyrate),[2]; HFD 4 weeks,not changed; also recorded: not altered
same,"serum levels of TG, free fatty acids and cholesterol",[2]; HFD 13 weeks,not significantly altered
same,transcriptional lipid metabolic profile in liver,[2]; HFD 13 weeks,not significantly altered; also recorded: not changed
same,liver TG and cholesterol levels,"[2]; HFD 17 weeks, also after prolonged treatment",not changed
